{"source": "patent US9757473B2", "about": "“Cell-penetrating peptide and conjugate comprising same” (GEMVAX & KAEL CO., LTD., priority 2013, dated 2017)", "format_in_all_cases": "cell-based", "key": {"[1]": {"system": "SNU-1041 and SNU-1076 head and neck cancer cells", "assay": "Intracellular trafficking (cell penetrability) by flow cytometry (FACS)", "conditions": "SNU-1041 and SNU-1076 cells, 10 uM, 2.5 hours, FIG. 2", "experimental": "In order to analysis of intracellular trafficking, Korean head and neck cancer cells (SNU-1041, SNU-1076), head and neck cancer cells founded by MD Anderson cancer center (OSC19, HN5), and normal cells DPSC (Dental Pulp Stem Cell) were used.\n(§1) The cell lines was maintained in good condition by seeding each cells to 100 cm2-culture dishes with RPMI-1640 or DMEM culture-media, 10% FBS and antibiotic-antimycotic antibiotics and culturing in incubator (37° C., 5% CO2). The condition of cells was maintained in good condition by checking the speed and conditions of cells and sub-culturing cells per 2-5 days.\nAfter culturing the cells with prepared cancer cells in 6 well-plate at 60-70% level 24-hours in advance, treating FITC (10 uM), pep1-FITC (10 uM), FITC-TAT (10 uM) separately, eliminating the culture media 2.5 hours later, washing with saline, and separating cells by treating Trypsin-EDTA enzyme to prepare each tube of 10^6 cells/ml, the cells was analyzed by FACS."}, "[2]": {"system": "head and neck cancer cells", "assay": "Dose-dependent cell apoptosis by MTT assay, cancer cell lines (Example 5)", "conditions": "MTT at 72 hours", "experimental": "(§2) The cell line was made by the cells and the cell cultivation method described in example 2 as same.\n(§3) After culturing the cancer cells and normal cells at 96 well-plate in 30-40% level 24-hours in advance by pre-seeding, treating with each reagent, and pre-evaluating killing ability by analyzing cell shape through microscope at 24 hours/48 hours/72 hours after, the quantitative analysis was done by MTT (3-(4,5-dimethylthiazol-2-yl)-2,5-diphenyltetrazolium bromide, a yellow tetrazole) assay which measures OD (optical density) values at 72 hours after."}, "[3]": {"system": "head and neck cancer cells", "assay": "Intracellular trafficking (cell penetrability) by flow cytometry (FACS)", "conditions": "10 uM, 2.5 hours", "experimental": "as §1, with “In order to analysis of intracellular trafficking, Korean head and neck cancer cells (SNU-1041, SNU-1076), head and neck cancer cells founded by MD Anderson cancer center (OSC19, HN5), and normal cells DPSC (Dental Pulp Stem Cell) were used. The cell” for “The cell”"}, "[4]": {"system": "HN5 and OSC19 head and neck cancer cells", "assay": "Intracellular trafficking (cell penetrability) by flow cytometry (FACS)", "conditions": "10 uM, 2.5 hours", "experimental": "as §1, with “In order to analysis of intracellular trafficking, Korean head and neck cancer cells (SNU-1041, SNU-1076), head and neck cancer cells founded by MD Anderson cancer center (OSC19, HN5), and normal cells DPSC (Dental Pulp Stem Cell) were used. The cell” for “The cell”"}, "[5]": {"system": "normal cell DPSC (Dental Pulp Stem Cell)", "assay": "Dose-dependent cell apoptosis by MTT assay, normal cells (Example 5)", "experimental": "as §2, §3"}}, "note": "Residues, ends and D or L forms follow the SMILES beside them. No end group written: not given here.", "data": [{"compound": "pep 1: pep 1 (consists of 16 amino acids) derived from telomerase, used for comparison (EARPALLTSRLRFIPK; UniProt O14746 611-626, looked up, fragment)", "values": [{"measurement": "cell penetrability (in words)", "setting": "[1]", "result": "high cell penetrability"}]}, {"compound": "NRGFKAGRNMRRKLFGVLRL [pep98]", "values": [{"measurement": "proliferation of cancer cells (cytotoxicity)", "setting": "[2]; treated alone, FIG. 3", "result": "not significantly decreased"}]}, {"compound": "pep1-FITC (EARPALLTSRLRFIPK; also: FITC label, site not given here; UniProt O14746 611-626, looked up, fragment)", "values": [{"measurement": "cell penetrability compared with FITC only", "setting": "[3]", "result": "improved cell penetrability than the FITC only"}, {"measurement": "cell penetrability (in words)", "setting": "[4]", "result": "lower cell penetrability"}]}, {"compound": "Cc1ccc(S(=O)(=O)OCC(=O)Nc2ccc(C(=O)O)c(O)c2)cc1", "note": "[NSC 74859]", "values": [{"measurement": "concentration from which killing / apoptosis of cancer cells started", "setting": "[2]; FIG. 4, FIG. 5", "result": 50, "unit": "µM"}, {"measurement": "concentration killing almost the whole cancer cells", "setting": "[2]; FIG. 4, FIG. 5", "result": 200, "unit": "µM"}, {"measurement": "concentration at which cell apoptosis of normal cells was shown", "setting": "[5]; MTT at 72 hours, FIG. 4", "result": 200, "unit": "µM"}, {"measurement": "concentration till which normal cells were not killed", "setting": "[5]; MTT at 72 hours, FIG. 4", "result": 100, "unit": "µM"}]}, {"compound": "CSCC[C@H](NC(=O)[C@H](CC(N)=O)NC(=O)[C@H](CCCNC(=N)N)NC(=O)CNC(=O)[C@H](C)NC(=O)[C@H](CCCCN)NC(=O)[C@H](Cc1ccccc1)NC(=O)CNC(=O)[C@H](CCCNC(=N)N)NC(=O)[C@H](CC(N)=O)NC(=O)c1ccc(NC(=O)COS(=O)(=O)c2ccc(C)cc2)cc1O)C(=O)N[C@@H](CCCNC(=N)N)C(=O)N[C@@H](CCCNC(=N)N)C(=O)N[C@@H](CCCCN)C(=O)N[C@@H](CC(C)C)C(=O)N[C@@H](Cc1ccccc1)C(=O)NCC(=O)N[C@H](C(=O)N[C@@H](CC(C)C)C(=O)N[C@@H](CCCNC(=N)N)C(=O)N[C@@H](CC(C)C)C(=O)O)C(C)C", "note": "[pep98-NSC 74859] (HELM PEPTIDE1{[Cc1ccc(S(=O)(=O)OCC(=O)[*:2])cc1].[O=C(c1ccc(N[*:1])cc1O)[*:2]].N.R.G.F.K.A.G.R.N.M.R.R.K.L.F.G.V.L.R.L}$$$$V2.0)", "values": [{"measurement": "killing of normal cells (in words)", "setting": "[5]; at the concentration that killed almost the whole cancer cells, FIG. 5", "result": "did not kill normal cell DPSC"}]}]}
